From article PMC7111291 (European Journal of Medicinal Chemistry, 2020)
Like-named read-outs stand apart in the source and are kept apart here.

Tests used:
[1] = tested on: wild type HIV-1 (VSVG/HIV-1wt); experiment: microbe, parasite or virus in culture; assay type: cell-based; conditions: for EC50: read-out: EC50±SD
HIV-1 RT Ribonuclease H = HIV-1 RT Ribonuclease H (Human immunodeficiency virus type 1 group M subtype B, UniProt P04585); experiment: Ribonuclease H activity detection; assay type: biochemical
VSVG/HIV-1RT-Y188L = assay type: cell-based; conditions: for EC50: read-out: EC50±SD
HEK 293T cells = assay type: cell-based, human; conditions: read-out: CC50±SD, 48 h
VSVG/HIV-1RT-K103N = assay type: cell-based
VSVG/HIV-1RT-Y181C = assay type: cell-based
VSVG/HIV-1RT-K103N,G190A = assay type: cell-based
VSVG/HIV-1RT-K103N,V108I = assay type: cell-based
[2] = Human immunodeficiency virus 1, HEK-293T

Row | Structure (SMILES) | EC50 [1] [nM] | IC50 (HIV-1 RT Ribonuclease H) [µM] | EC50 [1, 2] [nM] | other results
1 | CCCOn1cc(CC(=O)Nc2ccccc2Cl)c2ccccc21 [Compound 6d, N-(2-Chlorophenyl)-2-(1-propoxy-1H-indol-3-yl)acetamide] | 490 | > 100 |  | EC50 (VSVG/HIV-1RT-Y188L): > 10 µM
2 | CCCOn1cc(CC(=O)Nc2ccncc2Cl)c2ccccc21 [Compound 10f, N-(3-Chloropyridin-4-yl)-2-(1-propoxy-1H-indol-3-yl)acetamide] | 70 | > 100 |  | 
3 | CCCCOn1cc(CC(=O)Nc2ccncc2Cl)c2ccccc21 [Compound 10i, 2-(1-Butoxy-1H-indol-3-yl)-N-(3-chloropyridin-4-yl)acetamide] |  | > 100 | 60 ± 0.5 | 
4 | CCCOn1cc(C(=O)C(=O)Nc2ccncc2Cl)c2ccccc21 [Compound 14, N-(3-Chloropyridin-4-yl)-2-oxo-2-(1-propoxy-1H-indol-3-yl)acetamide] | > 10000 |  |  | infectivity when treated with the compound (percentage in parentheses) [1]: >10; (131.6 ± 0.60%); CC50 (HEK 293T cells): 20.9 ± 5.11 µM
5 | CCCOn1cc(C(O)C(=O)Nc2ccncc2Cl)c2ccccc21 (stereo not shown) [Compound 15, N-(3-Chloropyridin-4-yl)-2-hydroxy-2-(1-propoxy-1H-indol-3-yl)acetamide] | 2010 ± 60 |  |  | CC50 (HEK 293T cells): 19 ± 2.31 µM
6 | O=C1Nc2ccc(Cl)cc2[C@@](C#CC2CC2)(C(F)(F)F)O1 [EFV, efavirenz] | 1 |  | 0.7 ± 0.2 | Mean change (fold) in EC50 compared to wild type (VSVG/HIV-1RT-K103N): 0.03 ± 0.003 (27.0) fold; Mean change (fold) in EC50 compared to wild type (VSVG/HIV-1RT-Y181C): 0.002 ± 0.0001 (1.7) fold; Mean change (fold) in EC50 compared to wild type (VSVG/HIV-1RT-Y188L): 0.12 ± 0.03 (124.3) fold; Mean change (fold) in EC50 compared to wild type (VSVG/HIV-1RT-K103N,G190A): 0.18 ± 0.01 (183.0) fold; Mean change (fold) in EC50 compared to wild type (VSVG/HIV-1RT-K103N,V108I): 0.06 ± 0.01 (55.5) fold
7 | Cc1ccnc2c1NC(=O)c1cccnc1N2C1CC1 [NVP, nevirapine, reference compound] | 20 |  | 30 ± 3 | EC50 (VSVG/HIV-1RT-Y188L): > 100 µM
